How the values were obtained:
[1] = AUC (0 to 24 hrs) in ICR mouse at 1 mg/kg, iv measured upto 24 hrs by LC-MS/MS analysis; type: ADME, organism-based; conditions: in vivo
[2] = Clearance in ICR mouse at 1 mg/kg, iv measured upto 24 hrs by LC-MS/MS analysis; type: ADME, organism-based; conditions: in vivo
[3] = Metabolic stability in mouse liver microsome assessed as parent compound remaining measured at 60 mins by LCMS/MS analysis; type: ADME; conditions: liver microsomes, read-out: Stability
[4] = Metabolic stability in human liver microsome assessed as parent compound remaining measured at 60 mins by LCMS/MS analysis; type: ADME; conditions: liver microsomes, read-out: Stability
A-427 [5] = test: Induction of apoptosis in human A-427 cells assessed as viable cells at 800 nM measured for 48 hrs by Annexin V/PI double staining based flow cytometry analysis (reference value: 97.7%); type: functional; conditions: read-out: Activity
A-427 [6] = test: Induction of cell cycle arrest in human A-427 cells assessed as accumulation of cells at G2/M phase at 400 nM measured for 48 hrs by flow cytometry analysis (reference value: 10.9 %); type: functional
[7] = Volume of distribution in ICR mouse at 1 mg/kg, iv measured upto 24 hrs by LC-MS/MS analysis; type: ADME, organism-based; conditions: in vivo
A-427 [8] = test: Induction of apoptosis in human A-427 cells assessed as early apoptotic cells at 400 nM measured for 48 hrs by Annexin V/PI double staining based flow cytometry analysis (reference value: 1.96%); type: functional
A-427 [9] = test: Induction of apoptosis in human A-427 cells assessed as necrotic cells at 800 nM measured for 48 hrs by Annexin V/PI double staining based flow cytometry analysis (reference value: 0.098%); type: functional
A-427 [10] = test: Induction of cell cycle arrest in human A-427 cells assessed as accumulation of cells at S phase at 50 nM measured for 48 hrs by flow cytometry analysis (reference value: 4 %); type: functional
A-427 [11] = test: Antiproliferative activity against human A-427 cells assessed as inhibition of cell growth incubated for 72 hrs by CCK-8 assay; type: functional, cell-based; conditions: A-427, 72 h
A-427 [12] = test: Induction of apoptosis in human A-427 cells assessed as early apoptotic cells at 200 nM measured for 48 hrs by Annexin V/PI double staining based flow cytometry analysis (reference value: 1.96%); type: functional
A-427 [13] = test: Induction of cell cycle arrest in human A-427 cells assessed as accumulation of cells at G0/G1 phase at 200 nM measured for 48 hrs by flow cytometry analysis (reference value: 49.5%); type: functional
A-427 [14] = test: Induction of cell cycle arrest in human A-427 cells assessed as accumulation of cells at S phase at 200 nM measured for 48 hrs by flow cytometry analysis (reference value: 4 %); type: functional
A-427 [15] = test: Induction of apoptosis in human A-427 cells assessed as necrotic cells at 200 nM measured for 48 hrs by Annexin V/PI double staining based flow cytometry analysis (reference value: 0.098%); type: functional
A-427 [16] = test: Induction of cell cycle arrest in human A-427 cells assessed as accumulation of cells at G2/M phase at 200 nM measured for 48 hrs by flow cytometry analysis (reference value: 10.9 %); type: functional
Wee1-like protein kinase [17] = biological target: T1, Wee1-like protein kinase (Homo sapiens, UniProt P30291); test: Inhibition of Wee1 (unknown origin) at 1 uM relative to control
Target sequence in this assay (P30291 whole entry, looked up): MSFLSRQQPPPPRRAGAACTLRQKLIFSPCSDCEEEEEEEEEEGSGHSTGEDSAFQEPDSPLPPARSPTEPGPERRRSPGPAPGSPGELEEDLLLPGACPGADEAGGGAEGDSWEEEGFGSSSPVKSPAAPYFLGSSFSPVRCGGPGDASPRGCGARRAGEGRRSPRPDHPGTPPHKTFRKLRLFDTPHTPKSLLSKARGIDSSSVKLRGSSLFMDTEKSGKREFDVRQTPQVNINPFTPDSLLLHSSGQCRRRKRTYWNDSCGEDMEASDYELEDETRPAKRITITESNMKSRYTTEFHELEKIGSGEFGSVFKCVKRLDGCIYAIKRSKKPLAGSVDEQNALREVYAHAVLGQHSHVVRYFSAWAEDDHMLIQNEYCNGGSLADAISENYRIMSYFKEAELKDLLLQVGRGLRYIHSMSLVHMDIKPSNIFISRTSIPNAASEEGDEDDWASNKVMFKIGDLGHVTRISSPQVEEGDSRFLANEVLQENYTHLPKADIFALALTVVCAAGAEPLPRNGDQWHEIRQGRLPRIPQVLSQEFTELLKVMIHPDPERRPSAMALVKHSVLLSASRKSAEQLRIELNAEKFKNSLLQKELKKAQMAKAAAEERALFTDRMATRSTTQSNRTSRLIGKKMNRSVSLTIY

Wee1-like protein kinase [18] = biological target: T1, Wee1-like protein kinase; test: Inhibition of Wee1 in human U2OS cells assessed as reduction in CDK1 phosphorylation measured for 1 hr by Western blot analysis; type: cell-based
Target sequence in this assay (P30291 whole entry): as the sequence (P30291 whole entry, looked up) above

A-427 [19] = test: Induction of cell cycle arrest in human A-427 cells assessed as accumulation of cells at S phase at 100 nM measured for 48 hrs by flow cytometry analysis (reference value: 4 %); type: functional
A-427 [20] = test: Induction of cell cycle arrest in human A-427 cells assessed as accumulation of cells at G0/G1 phase at 100 nM measured for 48 hrs by flow cytometry analysis (reference value: 49.5%); type: functional
A-427 [21] = test: Induction of cell cycle arrest in human A-427 cells assessed as accumulation of cells at G2/M phase at 50 nM measured for 48 hrs by flow cytometry analysis (reference value: 10.9 %); type: functional
[22] = Bioavailability in ICR mouse at 60 mg/kg, IG measured upto 24 hrs by LC-MS/MS analysis; type: ADME, organism-based; conditions: in vivo, po
[23] = Acute toxicity in female C57 mouse assessed as reduction in body weight at 2000 mg/kg, IG measured for 14 days; type: organism-based; conditions: in vivo, po, 336 h, time 14 day
[24] = Half life in ICR mouse at 60 mg/kg, IG measured upto 24 hrs by LC-MS/MS analysis; type: ADME, organism-based; conditions: in vivo, po
A-427 [25] = test: Induction of apoptosis in human A-427 cells assessed as early apoptotic cells at 800 nM measured for 48 hrs by Annexin V/PI double staining based flow cytometry analysis (reference value: 1.96%); type: functional
A-427 [26] = test: Induction of apoptosis in human A-427 cells assessed as late apoptotic cells at 400 nM measured for 48 hrs by Annexin V/PI double staining based flow cytometry analysis (reference value: 0.21%); type: functional
A-427 [27] = test: Induction of apoptosis in human A-427 cells assessed as viable cells at 200 nM measured for 48 hrs by Annexin V/PI double staining based flow cytometry analysis (reference value: 97.7%); type: functional; conditions: read-out: Activity

C=CCn1c(=O)c2cnc(Nc3ccc(N4CCN(C)CC4)cc3)nc2n1-c1cccc(-c2cnccn2)n1 gave an AUC(0-t) at 24 h [1] of 118 ng·h/mL, a clearance [2] of 137 mL/min/kg and a remaining at 1 h [3] of 33.9%. It also gave a remaining at 1 h [4] of 58.5%, a viability at 0.8 µM (A-427 [5]) of 50.9% and an Activity (A-427 [6]) of 9.32%. The Vd [7] was 11.3 L/kg, the Activity (A-427 [8]) was 10.1% and the Activity (A-427 [9]) was 3.64%. For the same molecule, the Activity (A-427 [10]) was 46.7%, the IC50 (A-427 [11]) was 84 nM and the Activity (A-427 [12]) was 9.02%. The Activity (A-427 [13]) was 31.6%, the Activity (A-427 [14]) was 59.1% and the Activity (A-427 [15]) was 4.82%. The Activity (A-427 [16]) was 6.58%, the inhibition (Wee1-like protein kinase [17]) was 111% and the IC50 (Wee1-like protein kinase [18]) was 430 nM. For the same molecule, the Activity (A-427 [19]) was 48.5%, the Activity (A-427 [20]) was 41.4% and the Activity (A-427 [21]) was 6.57%. The bioavailability [22] was 61.5%, the Activity [23] was “Non-Toxic” and the half-life [24] was 5.94 h. For the same molecule, the Activity (A-427 [25]) was 10.1%, the Activity (A-427 [26]) was 29.2% and the viability at 0.2 µM (A-427 [27]) was 60.6%.
